Data on four compounds can be found in article PMC11457037 (Journal of medicinal chemistry, 2023).

Series [1] concerns the target T1, EV-D68 2A^pro (Enterovirus D68, UniProt A0A097BW19). The series can be described thus: FRET-based enzymatic assay. The series is classed as biochemical.
A further series has as its system five strains of EV-D68. The series can be described thus: Broad-spectrum antiviral activity, five strains of EV-D68 together. The series is classed as cell-based, Enterovirus D68.
A short description of series [2]: In vivo snap P.K. in mice. The conditions noted are these: male C57BL/6J mice, 50 mg/kg i.p., 10% DMSO and 90% corn oil.
Series [3] relates to EV-D68 US/MO/14-18947. The series can be described thus: Plaque assay, EV-D68 US/MO/14-18947. Format: cell-based, Enterovirus D68.
Series [4] deals with T1, EV-D68 2A^pro. The series can be described thus: Enzyme kinetic studies. Format: biochemical. The conditions noted are these: for Mode of inhibition of EV-D68 2A^pro: from fitting of kinetic curves.
Series [5] can be described thus: In vivo toxicity, escalating i.p. doses.
The test system of series [6] is EV-D68 US/MO/14-18947. Kind of series: CPE assay with EV-D68 US/MO/14-18947 in R.D. cells. The conditions noted are these: read-out: Antiviral EC50; CPE assay, EV-D68 US/MO/14-18947, R.D. cells. The series is classed as cell-based, Enterovirus D68.
In a further series the test system is R.D. cells. Kind of series: Cytotoxicity, neutral red uptake method in R.D. cells. The series is classed as cell-based, Human. The conditions noted are these: read-out: Cytotoxicity CC50.
In series [7] the test system is multiple strains of EV-D68. The conditions noted are these: read-out: EC50 values, multiple strains of EV-D68; viral cytopathic effect assay and plaque assay; cited from earlier work. (In general: Cytopathic effects are the visible damage that an infection or toxin causes in cultured cells.)

What is called EC50 is the midpoint of the concentration-response curve. In the case of `CC(C)(C)[C@H](NC(=O)CC12CC3CC(CC(C3)C1)C2)C(=O)N1C[C@@H]2CCC[C@@H]2[C@H]1C(=O)N[C@H](C(=O)C(=O)NC1CC1)C1CCCCC1` [Jun11762, (1S,3aR,6aS)-2-((S)-2-(2-((3S,5S,7S)-adamantan-1-yl)acetamido)-3,3-dimethylbutanoyl)-N-((S)-1-cyclohexyl-3-(cyclopropylamino)-2,3-dioxopropyl)octahydrocyclopenta[c]pyrrole-1-carboxamide], the “enzymatic inhibition, comparison in words” value at EV-D68 2A^pro [1] was “comparable enzymatic inhibition and antiviral activity as Jun8861”. Also, the half-maximal effective concentration (EC50) with five strains of EV-D68 (Enterovirus D, EVD68, read-out: EC50 values over all five strains) lay in the range of 43 to 269 nM. Moreover, the “fold improvement compared to telaprevir, five strains” value in the series on five strains of EV-D68 (five EV-D68 strains) was 3.1-4.6 fold. Also, in [2], the “time plasma concentration was above 4-fold of EC50 value (0.13 μM)” value is “at least 5 h”. Moreover, the “fold improvement compared to telaprevir, plaque assay EC50” value with EV-D68 US/MO/14-18947 [3] is listed as 3 to 4 fold. Further, the “Mode of inhibition of EV-D68 2A^pro” value on EV-D68 2A^pro [4] is listed as “reversible binding”. For the same compound, the “mortality and body weight” value in series [5] (BALB/c mice, i.p. 100 to 400 mg/kg, monitored up to day 16) is reported as “no mortality or significant body weight loss was observed”. Besides, in series [5] (female, BALB/c, mouse, in vivo, 16 days), the tolerated dose entry is listed as “up to 400 mg/kg”.
For the compound `CCC(C)[C@H](NC(=O)[C@@H]1[C@H]2CCC[C@H]2CN1C(=O)[C@@H](NC(=O)CC12CC3CC(CC(C3)C1)C2)C(C)(C)C)C(=O)C(=O)NC1CC1` (stereo partly drawn) [Jun11756, (1S,3aR,6aS)-2-((S)-2-(2-((3S,5S,7S)-adamantan-1-yl)acetamido)-3,3-dimethylbutanoyl)-N-((3S,4S)-1-(cyclopropylamino)-4-methyl-1,2-dioxohexan-3-yl)octahydrocyclopenta[c]pyrrole-1-carboxamide], the “enzymatic inhibition, comparison in words” value at EV-D68 2A^pro [1] was “comparable enzymatic inhibition and antiviral activity as Jun8861”. Further, the “fold improvement compared to telaprevir, plaque assay EC50” value in the series with EV-D68 US/MO/14-18947 [3] is listed as 3 to 4 fold.
In general, IC50 refers to the concentration needed to halve the response being measured. In general, CC50 refers to the concentration at which the toxic effect on the cells reaches its halfway point. For “(1S,3aR,6aS)-N-((S)-1-(cyclopropylamino)-1,2-dioxohexan-3-yl)-2-((S)-3,3-dimethyl-2-(2-phenylacetamido)butanoyl)octahydrocyclopenta[c]pyrrole-1-carboxamide [Jun8861]”, on EV-D68 2A^pro [1] (read-out: Enzymatic inhibitory activity IC50, EV-D68 2A^pro), the IC50 was 80 nM. In addition, the EC50 in the series on EV-D68 US/MO/14-18947 [6] came out at 160 nM. For the same compound, in the series on R.D. cells, the CC50 worked out at 36200 nM. For the same compound, the “Mode of inhibition of EV-D68 2A^pro” value on EV-D68 2A^pro [4] is “reversible binding”.
The kinact is the rate constant of inactivation at saturating inhibitor. `CCC[C@H](NC(=O)[C@@H]1[C@H]2CCC[C@H]2CN1C(=O)[C@@H](NC(=O)[C@@H](NC(=O)c1cnccn1)C1CCCCC1)C(C)(C)C)C(=O)C(=O)NC1CC1` [Telaprevir, telaprevir, reference compound]: at EV-D68 2A^pro [4], the kinact was found to be 0.00146 s⁻¹ and the “Mode of inhibition of EV-D68 2A^pro” value is “irreversible covalent inhibitor”. For the same compound, the EC50 in [7] was 400 to 1900 nM.
